{"source": "paper PMC5335257", "about": "“Promoting in vivo remyelination with small molecules: a neuroreparative pharmacological treatment for Multiple Sclerosis” (Scientific Reports, 2017)", "key": {"OPCs from P0 mice": {"system": "OPCs from P0 mice", "test": "Proliferation assay (BrdU incorporation)", "type": "cell-based, mouse", "details": "murine P0 OPCs, 1 μM, 72 h", "protocol": "We isolated OPCs, as previously described. Briefly, a stock papain solution was prepared containing ([…]; Worthington Biochemical), L-cysteine (0.2 mg/ml; Sigma), and EDTA (0.2 mg/ml; Sigma) in Hank’s Balanced Salt Solution (HBSS; Invitrogen) without Ca^2+ and Mg[2]. Then, the cerebral cortices of P0 CD1 mice were dissected out and placed for 5 minutes at 37 °C in a medium containing the stock papain solution in HBSS with Ca^2+ and Mg^2+ (1:10; Invitrogen) in order to easily remove the meninges. […] The resulting enriched oligodendrocyte progenitor cell suspension was counted and seeded.\nOPCs were placed on coverslips coated with poly-L-lysine (Sigma) and laminin (Sigma; 2 × 10^4 cells/well) and they were incubated with the inhibitors (VP3.15 or TDZD8; 1 μM) in the serum free medium described above. After 42 h in culture, BrdU (50 μM; Sigma) was added for 6 h and after a total of 72 h in culture, the cells were fixed and BrdU incorporation was detected by immunocytochemistry (1:20; G3G4, HybridomaBank) combined with the detection of the oligodendroglial marker Olig2 (1:250; Millipore; Cat#AB9610). […]"}, "[1]": {"system": "corpus callosum of cuprizone-fed mice", "test": "In vivo remyelination, cuprizone demyelination model", "set-up": "species or system C57/BL6 male mice", "protocol": "The protocol used was modified from previously described. Demyelination was induced by feeding 8 weeks old male C57/BL6 mice ad libitum with 0.2% cuprizone (bis-cyclo-hexanone-oxaldihydrazone; Sigma) mixed with milled chow (Altromin) for 5 weeks. A control group was maintained in the same conditions but fed with the chow without cuprizone. After cuprizone withdrawal, mice were intraperitoneally injected on 3 alternate days with PDE7-GSK3 inhibitors (VP1.15 or VP3.15; 10 mg/kg of animal) using a solution of the compound (100 mg/mL in DMSO) diluted 1:50 in a solution of 5% Tocrisolve (Tocris, UK) in distilledwater[36] or with the vehicle. 1 week after the cuprizone withdrawal, mice were transcardially perfused with 4% PFA in phosphate buffer. Another group was maintained for 3 weeks after cuprizone withdrawal and injected with 3 doses per week on alternate days of the PDE7-GSK3 inhibitors (10 mg/kg of animal per dose see above) or the vehicle and then perfused. The corpus callosum of three animals per condition was studied. For histological examination, forebrain coronal sections (20 μm) were taken of the rostral part of the corpus callosum as previously described[80][81] and stained with eriochrome cyanine using a standard protocol in order to study the myelin. Briefly, cryosections on glass slides were immersed in acetone for 5 minutes, dried and submerged in eriochrome cyanine solution (Sigma) for 1 hour and then differentiated in 5% (w/v) iron alum for 5–10 minutes, followed by a second differentiation with borax-ferricyanide solution for 5 minutes. The stained area was measured with the Image J software and related to the total analyzed area. For the immunofluorescence analysis, tissue sections were stained with anti-MBP (1:200; Serotec; Cat#MCA4095) for myelin, anti-PDGFRα (1:200; Santa Cruz; Cat#sc338) for OPCs, anti-CC1 (1:100; Calbiochem, Cat#OP80) and anti-GFAP (Glial fibrillary acidic protein; 1:200; Dako; Cat#Z0334) for astrocytes, and tomato lectin (TL; 1:67; Sigma; Cat#L0651) for microglia. Optical images were acquired using an Olympus BX61 microscope and fluorescence images were taken using a DFC480 FX digital camera (Leica) coupled to a Leica DM5000 B microscope or a confocal SP5 resonant scanner (Leica). Myelin staining (with MBP and eriochrome cyanine) and CC1 staining were quantified by taking pictures of non-overlapping fields of coronal sections of the corpus callosum, between the lateral ventricles (2 fields per section, 5–6 sections of each mice; using a x20 objective) and by measuring the fluorescence intensity or blue staining using the Image J software. The number of OPCs per field was also counted in pictures of the midline of the corpus callosum using the x40 objective (4–6 sections per mice). Astrocytes and microglia were evaluated in pictures of the same area of the corpus callosum using the x40 objective and quantified by measuring the area occupied by GFAP or TL staining respectively using the Image J software (4–6 sections per mice). Data were expressed as the mean ± SEM."}}, "note": "Entries after “also recorded” stand apart in the source; their conditions may differ."}
{"smiles": "c1ccc(-c2n/c(=N/CCN3CCOCC3)sn2-c2ccccc2)cc1", "note": "[VP3.15]", "values": [{"measurement": "OPC proliferation (BrdU+-Olig2+ cells)", "setting": "OPCs from P0 mice", "value": "no changes"}, {"measurement": "myelin staining (eriochrome cyanine) in corpus callosum vs vehicle", "setting": "[1]; 10 mg/kg i.p. on 3 alternate days, 1 week after cuprizone withdrawal", "value": "significantly higher myelin staining; also recorded: almost complete remyelination"}, {"measurement": "myelin quantification by MBP immunodetection", "setting": "[1]; 10 mg/kg i.p., after cuprizone withdrawal", "value": "confirmed these results, with similar effects"}, {"measurement": "microglial activation (TL staining) vs vehicle", "setting": "[1]; 1 week after cuprizone withdrawal", "value": "Neither VP1.15 nor VP3.15 induced changes"}, {"measurement": "number of OPCs (PDGFRα+ cells) vs vehicle", "setting": "[1]; one week after cuprizone withdrawal", "value": "significantly lower number of OPCs"}]}
